Data reported in publication PMC3002971, “A Universal Approach to Eliminate Antigenic Properties of Alpha-Gliadin Peptides in Celiac Disease” (PLoS ONE, 2010).

Columns and labels:
DQ8-Glia-α1 T cell clone = assay: T cell proliferation assay, DQ8-Glia-α1 T cell clone; format: cell-based, human; parameters: key: ± = 100 times reduced T cell stimulation compared to the ‘canonical’ epitope; - = 1000 times reduced T cell stimulation compared to the ‘canonical’ epitope; conditions: 3H-thymidine proliferation, triplicate; deamidated peptides, antigen 1–10 µg/ml; stimulation compared to canonical epitope
Experimental: (§1) Gluten specific T cell clones were generated from small intestinal biopsies of celiac disease patients as described before, [11], [12]. All patients signed an informed consent form which was approved by the hospital ethics committee. Proliferation assays were performed in triplicate in 150 µl Iscove's Modified Dulbecco's Medium (Bio Whittaker, Verviers, Belgium) with 10% pooled normal human serum in 96 well flat-bottom plates using 2×10^4 gluten specific T cells stimulated with […] irradiated HLA-DQ2-matched allogeneic peripheral blood mononuclear cells (3000 rad) in the presence or absence of antigen (1–10 µg/ml), [11], [12]. After 2 days ^3H-thymidine (0.5 µCi/well) was added to the cultures, and 18–20 hours thereafter the cells were harvested. ^3H-thymidine incorporation in the T cell DNA was determined with a liquid scintillation counter (1205 Betaplate Liquid Scintillation Counter, LKB Instruments, Gaithersburg, MD). A binding assay was performed as described previously.

T cell = conditions: cited from earlier work
Excerpt: Many gluten peptides with T cell stimulatory properties have now been identified. Such peptides have been found in wheat α-, γ-, and ω-gliadins as well as in low molecular weight (LMW) and high molecular weight (HMW) glutenins [8]–[14]. […] An α-gliadin derived 33-mer peptide (amino acid sequence […]) was identified that encodes six partially o ...

[1] = cited from earlier work
Excerpt: In addition to the canonical epitope motifs, a large series of sequence variants with one or two amino acid substitutions were detected ( Tables 2 , 3 , 4 , 5 ). The large majority of the Gli-B2 gliadins contained sequence variants of the DQ2-Glia-α1, DQ2-Glia-α2, and DQ2-Glia-α3 epitopes with two amino acid substitutions. Furthermore, Gli-A2 transcripts harbored a proline to serine substitution at position 8 (p8) of the DQ2-Glia-α2 epitope and a sequence variant (QGSFRP(S/F)QQN, amino acid substitution in bold) of the DQ8-Glia-α1 epitopes. Importantly, the 33-mer peptide ([…] ...

[2] = test system: DQ2-Glia-α1 specific T cell clones; assay: T cell proliferation assay, DQ2-Glia-α1 specific T cell clone; format: cell-based, human; parameters: key: ± = 100 times reduced T cell stimulation compared to the ‘canonical’ epitope; - = 1000 times reduced T cell stimulation compared to the ‘canonical’ epitope; conditions: 3H-thymidine proliferation, triplicate; deamidated 14- to 17-mer peptides, antigen 1–10 µg/ml; stimulation compared to canonical epitope
Experimental: as §1

[3] = test system: DQ2-Glia-α2 specific T cell clones; assay: T cell proliferation assay, DQ2-Glia-α2 specific T cell clone; format: cell-based, human; parameters: key: ± = 100 times reduced T cell stimulation compared to the ‘canonical’ epitope; - = 1000 times reduced T cell stimulation compared to the ‘canonical’ epitope; conditions: 3H-thymidine proliferation, triplicate; deamidated 14- to 17-mer peptides, antigen 1–10 µg/ml; stimulation compared to canonical epitope
Experimental: as §1

LGEGFFQPSQENP [Peptide 20]
DQ8-Glia-α1 T cell clone (DQ8-Glia-α1 T cell clone): -

LQLQPFPQPQLPYPQPQLPYPQPQLPYPQPQPF [33-mer peptide]
T cell stimulatory properties (T cell): very potent T cell stimulatory properties
resistance to degradation in the gastrointestinal tract [1]: highly resistant to degradation

QPQPFP-PELPYPQTQP [Peptide 15]
Glia-α1 T cell clone [2]: -
Glia-α2 T cell clone [3]: -
